“Also recorded” adds a separate entry of the source.
Key:
[1] = tested on: isolated human atrial myocytes; experiment: Patch-clamp recording of spontaneous Na-Ca exchange current (INCX) associated with calcium waves, membrane potential clamped at -80 mV; format: cell-based; settings: for basal calcium wave frequency measured by patch clamp technique: cells from atrial fibrillation patients with elevated basal SR calcium release, n=7, both antagonists pooled (FIG. 3B right); for reversal of the specific effect of CGS 21680 on spontaneous SR calcium release: antagonist concentration not stated at this place
Method: (§1) Myocytes were isolated from human atrial tissue samples as previously described (cf. L. Hove-Madsen et al., “Atrial fibrillation is associated with increased spontaneous calcium release from the sarcoplasmic reticulum in human atrial myocytes”, Circulation 2004, vol. 110, pp. 1358-63). Briefly, the samples were rinsed, cut into small pieces in a calcium free solution containing 30 mM butanedione monoxime (BDM), and incubated at 35° C. in a Ca^2+ free solution containing 0.5 mg/ml collagenase (Worthington type 2, 318 u/mg) and 0.5 mg/ml proteinase (Sigma type XXIV, 11 u/mg solid). After 45 minutes, the tissue was removed from the enzyme solution and cells were disgregated in Ca^2+-free solution with a Pasteur pipette. The remaining tissue was digested for 3×15 minutes in a fresh calcium free solution containing 0.4 mg/ml collagenase. […] Only elongated cells with clear cross striations and without granulation were used for experiments.
The transient inward Na—Ca exchange current associated with calcium waves was recorded in the perforated patch configuration using a software controlled patch-clamp amplifier (EPC 10, HEKA, Germany). The pipette resistance was 1.5-4 MΩ. Experiments were carried out at room temperature and began when the access resistance was stable and had decreased to less than 5 times the pipette resistance. The extracellular solution contained (in mM): NaCl 127, tetraethyl ammonium (TEA) 5, HEPES 10, NaHCO3 4, NaH2PO4 0.33, glucose 10, pyruvic acid 5, CaCl2 2, MgCl2 1.8, (pH=7.4). The pipette solution contained (in mM): aspartic acid 109, CsCl 47, Mg2ATP 3, MgCl2 1, Na2phosphocreatine 5, Li2GTP 0.42, HEPES 10 and 250 μg/ml amphotericin B, (pH=7.2). The A2A receptor agonist […], the antagonists ZM 241385 and SCH 58261, and the protein kinase A inhibitor H-89 were all dissolved in DMSO and kept as 10 mM stock solutions. The caffeine releasable SR calcium content was measured by transiently exposing cells to 10 mM caffeine. The time integral of the resulting Na—Ca exchange current was converted to pmoles […] of calcium released from the SR assuming a stoichiometry of 3Na^+:1Ca^2+ for the Na—Ca exchanger.
Electrophysiological and confocal calcium imaging experiments were carried out without knowledge about the clinical data of the patients. The Ca^2+ sparks and Ca^2+ waves recorded in cells from the same patient were averaged. Unless otherwise stated, average values from each patient were used for statistical analysis and expressed as mean±S.E.M. Data sets were tested for normality. Student's t-test was used to assess significant differences when testing a specific effect. ANOVA was used for comparison of multiple effects and Student-Newman-Keuls post test was used to evaluate the significance of specific effects.

[2] = tested on: isolated human atrial myocytes; experiment: Spontaneous SR calcium release (calcium sparks and waves), confocal calcium imaging of fluo-3 loaded cells; format: cell-based; settings: for basal calcium wave frequency measured by confocal microscopy: 50 nM, cells from atrial fibrillation patients with elevated basal SR calcium release, n=6, both antagonists pooled (FIG. 3B left)
Method: as §1
Calcium sparks and calcium waves were detected in fluo-3 loaded cells using a laser-scanning confocal microscope (Leica TCS SP2 AOBS, Germany). […] Fluorescence emission was collected between 500 and 650 nm with the excitation at 488 nm attenuated to 1-5%. Calcium sparks and calcium waves were measured at resting conditions during 2×10.24 s, at a scan rate of 1 kHz. Calcium sparks were detected as an increase in the signal mass of a 3 μm section through the center of a calcium spark, without any detectable increase in an adjacent 3 μm section. An increase in the signal mass in two or more adjacent 3 μm sections were counted as calcium waves. The amplitude of each calcium spark and its half-life were determined from an exponential fit of the decaying phase of the calcium spark transient. The calcium spark frequency was determined for each cell and normalized to the scanned cell length.
Electrophysiological and confocal calcium imaging experiments were carried out without knowledge about the clinical data of the patients. The Ca^2+ sparks and Ca^2+ waves recorded in cells from the same patient were averaged. […]

CCNC(=O)[C@H]1O[C@@H](n2cnc3c(N)nc(NCCc4ccc(CCC(=O)O)cc4)nc32)[C@H](O)[C@@H]1O [CGS 21680]
number of spontaneous calcium waves measured as the Na-Ca exchange current (INCX) ([1]; 200 nM, -80 mV, atrial fibrillation patients (FIG. 2A, B, D)): reversibly increased the number of spontaneous calcium waves
number of calcium waves ([2]; myocytes from patients with atrial fibrillation, preincubation with 200 nM): increased the number of calcium waves

O=S(=O)(NCCNC/C=C/c1ccc(Br)cc1)c1cccc2cnccc12 [H-89]
effect on the stimulatory effect of 200 nM CGS 21680 (wave frequency) ([1]; 10 μM H-89, myocytes from 5 patients with atrial fibrillation (FIG. 2E), p=0.002 CGS vs. CGS+H-89): abolished the stimulatory effect; also recorded: eliminated
spontaneous calcium release / calcium wave frequency relative to baseline before CGS 21680 ([1]; 10 μM H-89 with 200 nM CGS 21680, p=0.05 vs. control (FIG. 2E)): reduced spontaneous calcium release to a significantly lower level than the baseline; also recorded: reduces the calcium wave frequency below baseline level

Nc1nc2c(cnn2CCc2ccccc2)c2nc(-c3ccco3)nn12 [SCH 58261]
basal calcium wave frequency measured by patch clamp technique ([1]; 50 nM): significantly reduced the calcium wave frequency
spontaneous INCX frequency (basal) ([1]; 50 nM, samples of patients with atrial fibrillation, -80 mV (FIG. 3A)): reversible reduction
reversal of the specific effect of CGS 21680 on spontaneous SR calcium release [1]: reversed
basal calcium wave frequency measured by confocal microscopy [2]: significantly reduced the calcium wave frequency

Nc1nc(NCCc2ccc(O)cc2)nc2nc(-c3ccco3)nn12 [ZM 241385]
basal calcium wave frequency measured by patch clamp technique ([1]; 50 nM): significantly reduced the calcium wave frequency
reversal of the stimulatory effect of 200 nM CGS 21680 on spontaneous INCX ([1]; antagonist 1 μM, -80 mV (FIG. 2C)): able to revert the stimulatory effect
reversal of the specific effect of CGS 21680 on spontaneous SR calcium release [1]: reversed
basal calcium wave frequency measured by confocal microscopy [2]: significantly reduced the calcium wave frequency

— US8012973B2, “Compounds for the treatment of auricular fibrillation” (Proyecto de Biomedicina Cima S.L., priority 2005, dated 2011)
